Measured values published in ChEMBL document CHEMBL1641568, “An on-bead assay for the identification of non-natural peptides targeting the androgen receptor-cofactor interaction” (Bioorg Med Chem, 2011).
Square brackets hold non-standard residues; d marks the D form. Peptide text beside a SMILES is read from it. Phe(4-Cl) = N[C@@H](Cc1ccc(Cl)cc1)C(=O)O; 2Nal = N[C@@H](Cc1ccc2ccccc2c1)C(=O)O; Cha = N[C@@H](CC1CCCCC1)C(=O)O

Experiment: Inhibition of human GST-tagged androgen receptor-ligand binding domain/cofactor interaction assessed as fluorescence polarization by competition assay

| Compound | Ki |
| --- | --- |
| C[C@H](NC(=O)[C@H](CC1CCCCC1)NC(=O)[C@H](Cc1ccccc1)NC(=O)[C@H](CO)NC(=O)[C@H](CCC(=O)O)NC(=O)[C@H](Cc1c[nH]c2ccccc12)NC(=O)[C@H](CCCNC(=N)N)NC(=O)[C@H](CO)NC(=O)[C@@H](N)CO)C(=O)NCC(=O)N[C@@H](CCC(=O)O)C(=O)N[C@@H](CCCCN)C(=O)N[C@@H](CCC(=O)O)C(=O)N[C@@H](CO)C(=O)N[C@@H](CCCNC(=N)N)C(=O)NCC(=O)O (H-SSRWESF[Cha]AGEKESRG-OH) | 2.44 µM |
| C[C@H](NC(=O)[C@H](Cc1c[nH]c2ccccc12)NC(=O)[C@H](CC1CCCCC1)NC(=O)[C@H](CO)NC(=O)[C@H](CCC(=O)O)NC(=O)[C@H](Cc1ccc2ccccc2c1)NC(=O)[C@H](CCCNC(=N)N)NC(=O)[C@H](CO)NC(=O)[C@@H](N)CO)C(=O)NCC(=O)N[C@@H](CCC(=O)O)C(=O)N[C@@H](CCCCN)C(=O)N[C@@H](CCC(=O)O)C(=O)N[C@@H](CO)C(=O)N[C@@H](CCCNC(=N)N)C(=O)NCC(=O)O (H-SSR[2Nal]ES[Cha]WAGEKESRG-OH) | 0.47 µM |
| H-SSRFESLFAGEKESRG-OH | 0.76 µM |

Continued by falling Ki, values first:

| Ki | Compound |
| --- | --- |
| 166 µM | CC(C)C[C@H](NC(=O)[C@H](CCCNC(=N)N)NC(=O)[C@H](CO)NC(=O)[C@@H](N)CO)C(=O)N[C@@H](CCC(=O)O)C(=O)N[C@@H](CO)C(=O)N[C@@H](Cc1c[nH]c2ccccc12)C(=O)N[C@@H](Cc1ccc(Cl)cc1)C(=O)N[C@@H](C)C(=O)NCC(=O)N[C@@H](CCC(=O)O)C(=O)N[C@@H](CCCCN)C(=O)N[C@@H](CCC(=O)O)C(=O)N[C@@H](CO)C(=O)N[C@@H](CCCNC(=N)N)C(=O)NCC(=O)O (H-SSRLESW[Phe(4-Cl)]AGEKESRG-OH) |
| 82.9 µM | H-SSRWESWFAGEKESRG-OH |
| 3.68 µM | CC(C)C[C@H](NC(=O)[C@H](CO)NC(=O)[C@H](CCC(=O)O)NC(=O)[C@H](Cc1ccc2ccccc2c1)NC(=O)[C@H](CCCNC(=N)N)NC(=O)[C@H](CO)NC(=O)[C@@H](N)CO)C(=O)N[C@@H](Cc1c[nH]c2ccccc12)C(=O)N[C@@H](C)C(=O)NCC(=O)N[C@@H](CCC(=O)O)C(=O)N[C@@H](CCCCN)C(=O)N[C@@H](CCC(=O)O)C(=O)N[C@@H](CO)C(=O)N[C@@H](CCCNC(=N)N)C(=O)NCC(=O)O (H-SSR[2Nal]ESLWAGEKESRG-OH) |
| 0.94 µM | H-SSRFESWFAGEKESRG-OH |
